From patent US20210163453A1, “DERIVATIVES OF PAPAVERINE THAT ARE EFFECTIVE HYPOXIC TUMOR RADIOSENSITIZERS” (Ohio State Innovation Foundation, priority 2018, published 2021)

Tests used:
[1] = Cellular toxicity of PPV derivatives by trypan blue; type: cell-based; details: 10 uM, 72 h
Procedure: FIGS. 7A-7D show OCR and cellular toxicity data. […]. Bars represent mean OCR and PDE10 inhibitory activities from at least 5 (OCR) or 3 (PDE) replicates. All experiments were repeated at least twice. […] Values are mean+−SEM.
(§1) Experimental: Cell lines. All cell lines were purchased from the American Type Culture Collection (ATCC) and grown DMEM (Corning) supplemented with 10% FBS (Seradigm) and 1% Penicillin/Streptomycin (Fisher Bioreagents) at 37° C. in 5% CO2. Cells were treated with inhibitors papaverine hydrochloride (Sigma-Aldrich), rotenone (Sigma-Aldrich), piericidin A (Santa Cruz), capsaicin (Sigma-Aldrich), antimycin A (Sigma-Aldrich) and succinic acid disodium salt (Sigma-Aldrich). Cell viability was assessed by trypan blue exclusion.

[2] = tested on: C57BL/6 mice; assay: Acute toxicity, IV to isoflurane-anesthetized mice
Procedure: Bar graphs represent the mean area covered by pimonidazole-positive cells evaluated from 20 images per animal+−standard error of the mean. P value was calculated against control with two-tailed two-sample t test. […] Mean volumes+−SEM. P values were calculated against XRT with two-tailed two-sample t test. *P<0.05; **P<0.01; ***P<0.001; ****P<0.0001; n.s., not significant.
Reducing any possible adverse effects of PPV given to cancer patients if it is being used as a radiosensitizer are needed. PDE10A inhibition can cause systemic vascular effects which can result in a drop in blood pressure and increase in heart rate as vessels become more compliant. This acute drop in blood pressure produces a physiological compensation where the individual's heart rate and breathing rate rise to maintain tissue perfusion. If the effect on systemic vasculature was too great, this could lead to cardiovascular collapse and rapid death. Acute toxicity of PPV, SMV23 and SMV32 given IV to mice under anesthesia with 2% isoflurane was determined. Isoflurane delivered in medical air was used so that the effects on tumor oxygenation was reduced, although isoflurane can depress respiration and is typically given in 100% oxygen.

[3] = tested on: A549 cells; assay: Trypan blue cell viability of A549 cells in normoxia and hypoxia; type: cell-based, Human; details: 100 μM papaverine, 72 h
Procedure: FIGS. 2A-2D are OCR measurements and cell viability assessments. FIG. 2A-2B are representative of OCR measurement in competition assay between PPV and complex I inhibitors piericidin A (FIG. 2A) and capsaicin (FIG. 2B). Values represent the means+−SD. FIGS. 2C-2D show trypan blue cell viability assessment (of n=3) of A549 cells treated with 100 μM papaverine or 1 μM rotenone in normoxia (FIG. 2C) and hypoxia (FIG. 2D) (T=72 h). Bar charts represent mean of viable cells in duplicates+−standard deviation.
as §1

[4] = tested on: A549 flank xenografts; assay: Tumor growth delay of A549 flank xenografts with radiation (XRT); type: in vivo, mice
Procedure: Curves represent mean tumor volumes+−SEM. P values were calculated against XRT with two-tailed two-sample t test. *P<0.05; **P<0.01; ***P<0.001; ****P<0.0001; n.s., not significant.
Tumor Growth kinetics. 2×10^6 EO771 or 5×10^6 A549 cells were injected s.c. into the flanks of 6-week old female immunocompetent C57/B6 (EO771) or immunocompromised nu/nu (A549) mice. Caliper measurements of opposing diameter were used to calculate the tumor volumes. Upon reaching […], the tumors were visualized by cone beam CT and treatment plans calculated using SARRP software. X-rays were delivered with a single beam delivering 5 Gy using the Small Animal Research Radiation Platform (SARRP, Xstrahl). Tumor volumes were measured until the post treatment volume increased 3-fold. Error bars represent standard deviation.
For the test of the A549 flank tumors, the tumors were treated similarly to the breast cancer model, but 8 Gy was used, and a treatment group added consisting of 8 Gy radiotherapy followed 30 minutes later by 2 mg/kg papaverine. The reverse schedule would indicate if the drug must be present before the radiation so that it would alter the tumor metabolism to make it more susceptible to the radiotherapy.

## COc1cc2ccnc(Cc3cccc4ccccc34)c2cc1OC [SMV-32]
[1]
  cellular toxicity in vitro: Neither of these compounds shows cellular toxicity

## COc1ccc(Cc2nccc3cc(OC)c(OC)cc23)cc1OC [PPV, papaverine]
[2]; 6 mg/kg IV bolus
  time to death after delivery: ≤ 5 min
[2]; 6 mg/kg IV, 2% isoflurane in medical air
  Survivors: 0/3
[2]; rapid 6 mg/kg IV bolus, isoflurane-anesthetized mice
  acute toxicity: toxic, with significant gasping of mice, convulsions and death
[3]
  cellular toxicity in normoxia or hypoxia in vitro: no cellular toxicity
[4]; 2 mg/kg after 8 Gy
  effect of drug after XRT on growth delay: did not have any effect compared to radiation alone
[4]; 2 mg/kg before 8 Gy
  effect of drug before XRT on growth delay: enhances tumor growth delay
  increase in tumor growth delay compared to XRT alone: greater than 3 fold
[4]; 2 mg/kg before 8 Gy, listed as papaverine
  increase in tumor growth delay compared to XRT alone: 2.1-3.9 fold
